23 compounds from patent US6828320B2, “Heterocyclic compounds” (SmithKline Beecham Corporation, priority 1996, dated 2004) can be followed below.

The target in assay [1] is T1, c-erbB-4 (baculovirus expressed, recombinant intracellular domain) (Homo sapiens, UniProt Q15303).
T1 construct: baculovirus expressed, recombinant constructs of the intracellular domains of c-erbB-2 and c-erbB-4; made in house
Briefly: Substrate phosphorylation assay, c-erbB-4. Format: biochemical. As to the method:
(§1) The substrate phosphorylation assays use baculovirus expressed, recombinant constructs of the intracellular domains of c-erbB-2 and c-erbB-4 that are constitutively active and EGFr isolated from solubilised A431 cell membranes. The method measures the ability of the isolated enzymes to catalyse the transfer of the γ-phosphate from ATP onto tyrosine residues in a biotinylated synthetic peptide (Biotin-[…]. […] The reaction is stopped by the addition of EDTA (final concentration 0.15 mM) and a sample is transferred to a streptavidin-coated 96-well plate. The plate is washed and level of phosphotyrosine on the peptide is determined using a Europium-labelled antiphosphotyrosine antibody and quantified with a time-resolved fluorescence technique.

Assay [2] deals with T2, c-erbB-2 (baculovirus expressed, recombinant intracellular domain) (Homo sapiens, UniProt P04626).
T2 construct: baculovirus expressed, recombinant constructs of the intracellular domains of c-erbB-2 and c-erbB-4; made in house
T2 sequence (P04626 676-1255 limits assumed): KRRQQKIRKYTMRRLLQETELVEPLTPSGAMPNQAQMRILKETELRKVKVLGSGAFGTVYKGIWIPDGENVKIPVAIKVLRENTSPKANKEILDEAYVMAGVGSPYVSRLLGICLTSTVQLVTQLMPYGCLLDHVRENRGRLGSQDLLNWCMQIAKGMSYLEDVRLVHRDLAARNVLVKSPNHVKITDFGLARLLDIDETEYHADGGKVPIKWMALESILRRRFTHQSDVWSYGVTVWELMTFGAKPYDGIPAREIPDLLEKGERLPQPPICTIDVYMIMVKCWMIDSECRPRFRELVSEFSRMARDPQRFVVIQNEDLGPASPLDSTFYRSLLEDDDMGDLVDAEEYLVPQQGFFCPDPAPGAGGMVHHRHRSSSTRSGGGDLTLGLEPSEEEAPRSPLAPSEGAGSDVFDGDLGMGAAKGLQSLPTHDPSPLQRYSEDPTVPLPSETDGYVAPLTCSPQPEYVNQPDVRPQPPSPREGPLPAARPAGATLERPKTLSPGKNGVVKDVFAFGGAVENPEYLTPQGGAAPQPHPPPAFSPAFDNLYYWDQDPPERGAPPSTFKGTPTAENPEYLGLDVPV
The experiment in a line: Substrate phosphorylation assay, c-erbB-2. Format: biochemical. On the procedure: as §1

Assay [3] deals with HB4a cell line transfected with ras. The experiment in a line: Cell proliferation assay, HB4a ras. The format is cell-based, human. Conditions: Homo sapiens, HB4a, 96 h, read-out: Cell Proliferation HB4a ras.
The target of assay [4] is HB4a cell line transformed by over-expression of c-erbB-2 (Homo sapiens, UniProt P04626). Briefly: Cell proliferation assay, HB4a erbB-2. The format is cell-based. On the procedure:
The cell proliferation assay uses an immortalised human breast epithelial cell line (HB4a) which has been transformed by over-expression of c-erbB-2. Growth of these cells in low serum is dependent upon the c-erbB-2 tyrosine kinase activity. […] Cells are plated at 3000/ well in 96-well plates in 0.1 ml medium and allowed to attach overnight. test compound is added in 0.1 ml medium, with a final concentration of 0.5% DMSO, and the plates incubated for 4 days at 37° C. The cells are then examined microscopically for evidence of morphological detransformation and cell mass is estimated by staining with methylene blue and measuring the absorbance at 620 nm. […] Activity against a range of naturally occurring EGFr or c-erbB-2 over-expressing human tumour cell lines (BT474-breast, HN5-head and neck, N87-gastric and Calu3-lung) is assessed with selected compounds by the same methodology.

For assay [5], the target named is T3, EGFr isolated from solubilised A431 cell membranes (Homo sapiens, UniProt P00533).
T3 construct: EGFr isolated from solubilised A431 cell membranes; endogenous in cells; host or cells: A431 cell membranes (solubilised)
T3 sequence (P00533 25-1210): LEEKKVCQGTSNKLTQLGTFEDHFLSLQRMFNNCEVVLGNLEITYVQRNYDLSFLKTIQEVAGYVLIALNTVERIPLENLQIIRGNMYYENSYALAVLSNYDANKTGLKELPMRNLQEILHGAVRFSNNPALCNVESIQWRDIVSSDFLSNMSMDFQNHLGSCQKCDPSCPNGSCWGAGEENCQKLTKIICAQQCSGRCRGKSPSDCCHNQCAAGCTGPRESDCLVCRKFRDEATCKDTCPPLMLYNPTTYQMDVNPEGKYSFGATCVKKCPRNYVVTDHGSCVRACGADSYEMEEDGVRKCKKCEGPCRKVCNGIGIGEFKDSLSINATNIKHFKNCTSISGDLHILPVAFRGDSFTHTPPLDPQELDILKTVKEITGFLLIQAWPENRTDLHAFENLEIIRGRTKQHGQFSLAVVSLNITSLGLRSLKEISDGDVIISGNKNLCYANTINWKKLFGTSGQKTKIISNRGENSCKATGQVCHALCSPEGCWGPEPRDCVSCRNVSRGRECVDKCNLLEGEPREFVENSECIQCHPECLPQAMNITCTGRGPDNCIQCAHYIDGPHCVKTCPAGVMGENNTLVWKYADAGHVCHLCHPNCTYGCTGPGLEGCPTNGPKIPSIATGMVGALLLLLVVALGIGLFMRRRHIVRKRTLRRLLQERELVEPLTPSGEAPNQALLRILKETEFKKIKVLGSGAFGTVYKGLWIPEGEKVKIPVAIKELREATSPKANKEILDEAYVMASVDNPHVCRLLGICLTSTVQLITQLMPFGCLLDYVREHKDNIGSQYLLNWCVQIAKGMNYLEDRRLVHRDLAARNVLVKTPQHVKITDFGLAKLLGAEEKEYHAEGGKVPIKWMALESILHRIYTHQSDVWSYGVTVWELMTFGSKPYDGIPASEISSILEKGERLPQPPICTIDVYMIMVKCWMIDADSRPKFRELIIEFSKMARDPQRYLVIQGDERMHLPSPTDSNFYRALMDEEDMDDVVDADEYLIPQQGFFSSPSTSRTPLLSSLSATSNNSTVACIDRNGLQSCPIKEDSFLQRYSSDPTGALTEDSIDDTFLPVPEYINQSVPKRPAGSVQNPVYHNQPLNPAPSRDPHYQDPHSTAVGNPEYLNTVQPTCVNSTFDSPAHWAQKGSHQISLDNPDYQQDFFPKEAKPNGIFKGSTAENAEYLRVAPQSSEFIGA
Briefly: Substrate phosphorylation assay, EGFr. The format is biochemical. As to the method:
as §1

Where [6] appears, read: read-out: Substrate Phosphorylation erbB-2.
Setting [7] is: 4 days at 37° C., methylene blue staining, general toxicity control.
Setting [8] is: 4 days at 37° C., methylene blue staining; read-out: Cell Proliferation HB4a erbB-2.
Setting [9] is: 30 minutes, room temperature, ATP and peptide at Km concentrations.

SMILES strings stand for the structures. Where a name gives a salt, the structure may show the parent alone. Read-outs that look alike come from different tables or passages of the source. Bounds are passed on as bounds.

Sequence of HB4a cell line transformed by over-expression of c-erbB-2 (P04626 whole entry, stated change not applied): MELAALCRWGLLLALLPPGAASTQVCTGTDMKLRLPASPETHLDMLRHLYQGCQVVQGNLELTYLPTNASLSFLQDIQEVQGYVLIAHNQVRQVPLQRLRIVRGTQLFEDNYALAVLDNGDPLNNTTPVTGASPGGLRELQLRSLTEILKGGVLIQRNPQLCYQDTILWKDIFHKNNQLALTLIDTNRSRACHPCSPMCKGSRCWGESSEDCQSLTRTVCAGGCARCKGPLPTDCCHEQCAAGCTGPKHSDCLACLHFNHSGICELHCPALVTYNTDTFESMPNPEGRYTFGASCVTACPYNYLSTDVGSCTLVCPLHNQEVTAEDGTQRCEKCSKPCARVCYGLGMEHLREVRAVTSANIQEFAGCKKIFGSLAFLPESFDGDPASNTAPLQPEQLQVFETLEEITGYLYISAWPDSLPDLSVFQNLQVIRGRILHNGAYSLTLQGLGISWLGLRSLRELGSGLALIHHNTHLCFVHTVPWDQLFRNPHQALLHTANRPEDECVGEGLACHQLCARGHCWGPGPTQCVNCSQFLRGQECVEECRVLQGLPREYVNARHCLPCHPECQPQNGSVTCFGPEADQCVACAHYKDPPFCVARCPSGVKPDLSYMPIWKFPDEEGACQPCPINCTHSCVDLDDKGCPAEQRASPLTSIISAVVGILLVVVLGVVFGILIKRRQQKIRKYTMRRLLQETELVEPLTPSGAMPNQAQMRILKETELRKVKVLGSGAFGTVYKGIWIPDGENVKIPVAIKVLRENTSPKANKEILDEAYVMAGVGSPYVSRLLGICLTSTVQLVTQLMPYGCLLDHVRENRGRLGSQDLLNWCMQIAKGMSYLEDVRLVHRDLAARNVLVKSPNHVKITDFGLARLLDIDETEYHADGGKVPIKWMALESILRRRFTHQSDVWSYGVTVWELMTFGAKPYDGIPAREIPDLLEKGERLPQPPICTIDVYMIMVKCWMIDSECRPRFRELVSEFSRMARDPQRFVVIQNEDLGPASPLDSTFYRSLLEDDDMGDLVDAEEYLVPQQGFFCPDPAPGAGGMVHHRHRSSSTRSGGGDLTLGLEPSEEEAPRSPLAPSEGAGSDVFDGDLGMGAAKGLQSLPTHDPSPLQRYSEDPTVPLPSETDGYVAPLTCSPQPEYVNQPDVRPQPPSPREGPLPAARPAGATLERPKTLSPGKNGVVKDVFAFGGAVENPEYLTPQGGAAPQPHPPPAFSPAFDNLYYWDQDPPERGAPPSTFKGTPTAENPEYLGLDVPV
T1 sequence (Q15303 676-1308 limits assumed): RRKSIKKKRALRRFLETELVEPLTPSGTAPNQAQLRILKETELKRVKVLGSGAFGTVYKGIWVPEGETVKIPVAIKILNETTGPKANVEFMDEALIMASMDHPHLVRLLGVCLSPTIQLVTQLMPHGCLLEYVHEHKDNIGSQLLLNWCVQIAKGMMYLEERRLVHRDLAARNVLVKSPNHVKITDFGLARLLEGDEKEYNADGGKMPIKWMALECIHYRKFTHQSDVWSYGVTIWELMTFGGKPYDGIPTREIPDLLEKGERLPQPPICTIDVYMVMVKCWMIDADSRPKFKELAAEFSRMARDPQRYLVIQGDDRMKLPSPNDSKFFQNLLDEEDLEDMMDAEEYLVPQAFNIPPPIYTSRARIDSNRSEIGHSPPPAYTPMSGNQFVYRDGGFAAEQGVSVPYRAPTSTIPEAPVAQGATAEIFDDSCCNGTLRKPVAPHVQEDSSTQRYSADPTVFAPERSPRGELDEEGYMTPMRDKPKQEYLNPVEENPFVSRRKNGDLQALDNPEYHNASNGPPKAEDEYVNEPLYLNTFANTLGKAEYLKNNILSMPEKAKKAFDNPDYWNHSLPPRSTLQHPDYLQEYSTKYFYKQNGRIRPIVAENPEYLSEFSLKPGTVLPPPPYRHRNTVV

For `c1ccc(COc2ccc(Nc3ncnc4ccc(-c5ccco5)cc34)cc2)cc1` [Example 1, (4-Benzyloxy-phenyl)-(6-furan-2-yl-quinazolin-4-yl)-amine], the IC50 came out at 2500 nM in assay [1] and 40 nM in assay [2] (setting [6]).
As to `c1ccc(COc2ccc(Nc3ncnc4ccc(-c5ccccn5)cc34)cc2)cc1` [Example 3, (4-Benzyloxy-phenyl)-(6-(pyridin-2-yl)-quinazolin-4-yl)-amine], the IC50 in assay [1] is 8600 nM; in assay [3] (setting [7]) it was 16 µM; in assay [2] (setting [6]), 29 nM. For the same compound, in assay [4] (setting [8]), the GI50 turned out to be 23000 nM.
For `c1ccc(COc2ccc(Nc3ncnc4ccc(-c5ncccn5)cc34)cc2)cc1` [Example 4, (4-Benzyloxy-phenyl)-(6-(pyrimidin-2-yl)-quinazolin-4-yl)-amine], the values for the IC50 in assay [1], in assay [3] (setting [7]) and in assay [2] (setting [6]) were 6400 nM, 50 µM and 35 nM, respectively.
With `Cn1nncc1-c1ccc2ncnc(Nc3ccc(OCc4ccccc4)cc3)c2c1` [Example 8, (4-Benzyloxy-phenyl)-(6-(3-methyl-1,2,3-triazol-4-yl)-quinazolin-4-yl)-amine], the IC50 in assay [1] was over 10000 nM; in assay [2] (setting [6]) it was 150 nM.
For `O=Cc1ccc(-c2ccc3ncnc(Nc4ccc(OCc5ccccc5)cc4)c3c2)o1` [Example 9, 5-(4-(4-Benzyloxy-phenylamino)-quinazolin-6-yl)-furan-2-carbaldehyde], the results for the IC50 in assay [1], in assay [3] (setting [7]) and in assay [2] (setting [6]) were 430 nM, 5.7 µM and 24 nM, respectively. Moreover, the GI50 in assay [4] (setting [8]) turned out to be 550 nM.
For the compound `Cc1nnc(-c2ccc3ncnc(Nc4ccc5c(cnn5Cc5cc(F)cc(F)c5)c4)c3c2)o1` [Example 31, (1-(3,5-Difluoro-benzyl)-1H-indazol-5-yl)-(6-(5-methyl-1,3,4-oxadiazol-2-yl)-quinazolin-4-yl)-amine hydrochloride], the IC50 in assay [3] (setting [7]) is over 50 µM; in assay [5], 9 nM. In assay [4] (setting [8]), the GI50 was determined as 1100 nM.
For `c1ccc(COc2ccc(Nc3ncnc4ccc(-c5nnn[nH]5)cc34)cc2)cc1` [Example 40, (4-Benzyloxy-phenyl)-(6-(1H-tetrazol-5-yl)-quinazolin-4-yl)-amine], the IC50 is 970 nM in assay [1], over 50 µM in assay [3] (setting [7]) and 3 nM in assay [2] (setting [6]). In addition, the GI50 in assay [4] (setting [8]) is over 50000 nM.
For `Cc1nnc(-c2ccc3ncnc(Nc4ccc5c(cnn5Cc5ccccc5)c4)c3c2)[nH]1` [Example 42, (1-Benzyl-1H-indazol-5-yl)-(6-(5-methyl-1,3,4-triazol-2-yl)-quinazolin-4-yl)-amine], the values for the IC50 in assay [3] (setting [7]) and in assay [2] (setting [6]) were 20 µM and 7 nM, respectively. Besides, the GI50 in assay [4] (setting [8]) is 570 nM.
As for `Cc1cc(-c2ccc3ncnc(Nc4ccc(OCc5ccccc5)cc4)c3c2)on1` [Example 47, (4-Benzyloxy-phenyl)-(-6-(3-methylisoxazol-5-yl)-quinazolin-4-yl)-amine hydrochloride], the IC50 turned out to be 5000 nM in assay [1] and 490 nM in assay [2] (setting [6]).
Turning to `CN(CCS(C)(=O)=O)Cc1ccc(-c2ccc3ncnc(Nc4ccc(OCc5ccccc5)cc4)c3c2)o1` [Example 48, (4-Benzyloxy-phenyl)-(6-(5-(((2-methanesulphonyl-ethyl)-methyl-amino)-methyl)-furan-2-yl)-quinazolin-4-yl)-amine], the IC50 in assay [1] was found to be 1100 nM; in assay [3] (setting [7]), 9.5 µM; in assay [2] (setting [6]), 38 nM. In addition, the GI50 in assay [4] (setting [8]) was determined as 80 nM.
On to `CS(=O)(=O)NCCNCc1ccc(-c2ccc3ncnc(Nc4ccc(OCc5ccccc5)cc4)c3c2)o1` [Example 49, N-(2-((5-(4-(4-Benzyloxy-phenylamino)-quinazolin-6-yl)-furan-2-ylmethyl)-amino) -ethyl)-methanesulphonamide dihydrochloride], for which the IC50 in assay [3] came to 3.5 µM; in assay [2], 33 nM. For the same compound, in assay [4] (read-out: Cell Proliferation HB4a erbB-2; 4 days at 37° C., methylene blue staining), the GI50 amounted to 470 nM.
In the case of `NS(=O)(=O)CCNCc1ccc(-c2ccc3ncnc(Nc4ccc(OCc5ccccc5)cc4)c3c2)o1` [Example 50, 2-((5-(4-(4-Benzyloxy-phenylamino)-quinazolin-6-yl)-furan-2-ylmethyl)-amino)-ethanesulphonic acid amide], the figures for the IC50 in assay [1], in assay [3] (setting [7]) and in assay [2] (setting [6]) were 100 nM, 7.1 µM and 12 nM, respectively. The GI50 in assay [4] (setting [8]) is 860 nM.
For `COC(=O)c1ccc(-c2ccc3ncnc(Nc4ccc(OCc5ccccc5)cc4)c3c2)o1` [Example 51, 5-(4-(4-Benzyloxy-phenylamino)-quinazolin-6-yl)-furan-2-carboxylic acid methyl ester], in that order: 5800 nM, 21 µM, 20 nM and 38000 nM.
Take `CS(=O)(=O)CCNC(=O)c1ccc(-c2ccc3ncnc(Nc4ccc(OCc5ccccc5)cc4)c3c2)o1` [Example 53, 5-[4-(4-Benzyloxy-phenylamino)-quinazolin-6-yl]-furan-2-carboxylic acid (2-methanesulphonyl-ethyl)-amide hydrochloride]: the IC50 in assay [3] (setting [7]) is 36 µM; in assay [5] (setting [9]), 13 nM. In addition, in assay [4] (setting [8]), the GI50 was determined as 1800 nM.
As to `CNS(=O)(=O)CCNCc1ccc(-c2ccc3ncnc(Nc4ccc(OCc5ccccc5)cc4)c3c2)o1` [Example 54, 2-((5-(4-(4-Benzyloxy-phenylamino)-quinazolin-6-yl)-furan-2-ylmethyl)-amino)-ethanesulphonic acid methylamide], the IC50 in assay [1] was found to be 280 nM; in assay [3] (setting [7]), 7.4 µM; in assay [2] (setting [6]) it was 24 nM. Also, the GI50 in assay [4] (setting [8]) was determined as 140 nM.
As to `Cc1noc(-c2ccc3ncnc(Nc4ccc5c(cnn5Cc5ccccc5)c4)c3c2)n1` [Example 55, (1-Benzyl-1H-indazol-5-yl)-(6-(3-methyl-1,2,4-oxadiazol-5-yl)-quinazolin-4-yl)-amine hydrochloride], the results for the IC50 in assay [1], in assay [3] (setting [7]) and in assay [2] (setting [6]) were 1000 nM, 20 µM and 10 nM, respectively. Also, the GI50 in assay [4] (setting [8]) stood at 2000 nM.
For `Cc1nc(-c2ccc3ncnc(Nc4ccc(OCc5ccccc5)cc4)c3c2)no1` [Example 56, (4-Benzyloxy-phenyl)-(6-(5-methyl-1,2,4-oxadiazol-3-yl)-quinazolin-4-yl)-amine], in that order: over 10000 nM, over 50 µM, 260 nM and 1700 nM.
For the compound `CN(C)CCc1nc(-c2ccc3ncnc(Nc4ccc(OCc5ccccc5)cc4)c3c2)no1` [Example 57, (4-Benzyloxy-phenyl)-(6-(5-(2-dimethylamino-ethyl)-1,2,4-oxadiazol-3-yl)-quinazolin-4-yl)-amine], the IC50 in assay [3] (setting [7]) stood at 2.7 µM; in assay [2] (setting [6]), 83 nM. Moreover, the GI50 in assay [4] (setting [8]) amounted to 1200 nM.
The like results for `CN(C)Cc1nc(-c2ccc3ncnc(Nc4ccc(OCc5ccccc5)cc4)c3c2)no1` [Example 58, (4-Benzyloxy-phenyl)-(6-(5-(dimethylaminomethyl)-1,2,4-oxadiazol-3-yl)-quinazolin-4-yl)-amine] were, in that order, 28 µM, 6 nM and 8600 nM.
With `CS(=O)(=O)CCNCc1nc(-c2ccc3ncnc(Nc4ccc5c(cnn5Cc5ccccc5)c4)c3c2)no1` [Example 59, (1-Benzyl-1H-indazol-5-yl)-(6-(5-(((2-methanesulphonyl-ethyl)-amino)-methyl)-1,2,4-oxadiazol-3-yl)-quinazolin-4-yl)-amine], the IC50 in assay [3] (setting [7]) is 11 µM; in assay [5] (setting [9]), 11 nM. Besides, the GI50 in assay [4] (setting [8]) was determined as 790 nM.
With `CS(=O)(=O)Cc1nc(-c2ccc3ncnc(Nc4ccc5c(cnn5Cc5ccccc5)c4)c3c2)no1` [Example 60, (1-Benzyl-1H-indazol-5-yl)-(6-(5-methanesulphonylmethyl-1,2,4-oxadiazol-3-yl)-quinazolin-4-yl)-amine], the results for the IC50 in assay [3] (setting [7]) and in assay [5] (setting [9]) were 50 µM and 1900 nM, respectively. The GI50 in assay [4] (setting [8]) stood at 540 nM.
On to `Cc1nc(-c2ccc3ncnc(Nc4ccc5c(cnn5Cc5ccccc5)c4)c3c2)no1` [Example 61], for which the IC50 was determined as 3.1 µM in assay [3] (setting [7]) and 810 nM in assay [5] (setting [9]). Further, the GI50 in assay [4] (setting [8]) amounted to 500 nM.
Consider `Cc1nocc1-c1ccc2ncnc(Nc3ccc(OCc4ccccc4)cc3)c2c1` [Example 85, (4-Benzyloxy-phenyl)-(6-(3-methyl-[1,2]oxazol-4-yl)-quinazolin-4-yl)-amine], for which the IC50 in assay [1] was 9700 nM; in assay [3] (setting [7]), 2.3 µM; in assay [2] (setting [6]) it was 130 nM. The GI50 in assay [4] (setting [8]) came out at 2100 nM.
